In paper PMC10979747 (Journal of the American Chemical Society, 2024):
Like-named read-outs stand apart in the source and are kept apart here. Numbered stars: 1 amine (or outer) side, 2 acyl side, 3 side chain; on linkers, the order of the positions; unused ones are H or OH. Bridge positions count the residues as written; N and C are the ends. Square brackets hold non-standard residues; d marks the D form. Peptide text beside a SMILES is read from it. X1 = C=C(N[*:2])c1nc(-c2nc(-c3nc(C(=O)OC)cs3)ccc2C(=O)[*:1])cs1; NMePhe(4-NO2) = CN[C@@H](Cc1ccc([N+](=O)[O-])cc1)C(=O)O; LeuThz(4-CO) = CC(C)C[C@H](N[*:1])c1nc(C(=O)[*:2])cs1; ValThz = CC(C)[C@H](N[*:1])c1nc(C(=O)[*:2])cs1; Tic(7-OH) = O=C(O)[C@@H]1Cc2ccc(O)cc2CN1; X3 = C/C=C(\N[*:1])c1nc(C(=O)[*:2])cs1; Aad = N[C@@H](CCCC(=O)O)C(=O)O; Dhb = C/C=C(\N)C(=O)O; Dha = C=C(N)C(=O)O; Sar = CNCC(=O)O

Legend:
[1] = Serum stability assay (LC/MS against internal standard); settings: for half-life at 10 µM: human, human serum diluted in TBS, pH 7.6
TNIK [2] = target: T1, TNIK (Homo sapiens, UniProt Q9UKE5); test: Surface plasmon resonance, binding of thiopeptides to immobilized biotinylated TNIK (single-cycle, then multicycle kinetics); parameters: Biotinylated TNIK (kinase domain, amino acids 1-314;); biotin (biotinylated protein); purchased Carna Biosciences (Kobe, Japan); settings: for KD / koff / kon / Kd: SPR kinetic data, binding to immobilized TNIK; for KD (binding affinity to TNIK): average from three multicycle kinetic experiments, 1:1 binding model, 25 °C; for Kd: read-out: KD
T1 sequence (Q9UKE5 1-314): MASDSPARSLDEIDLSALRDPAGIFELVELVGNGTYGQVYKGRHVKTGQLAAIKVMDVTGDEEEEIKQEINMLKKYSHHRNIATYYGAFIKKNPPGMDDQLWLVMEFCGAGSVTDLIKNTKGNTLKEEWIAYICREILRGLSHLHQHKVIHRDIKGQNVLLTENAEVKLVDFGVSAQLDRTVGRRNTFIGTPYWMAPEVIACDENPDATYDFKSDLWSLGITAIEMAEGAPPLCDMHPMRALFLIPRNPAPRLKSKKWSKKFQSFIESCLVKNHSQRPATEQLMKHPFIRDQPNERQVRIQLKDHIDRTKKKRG
Protocol: 2.8. Surface plasmon resonance
In the initial experiment, binding affinities between the thiopeptides and TNIK were measured with a Biacore T200 instrument (GE Healthcare) at 25 °C. The assay buffer contained 50 mM Tris (pH 7.5), 150 mM NaCl, 10 mM MgCl2, 0.01% (v/v) tween-20 and 0.1% (v/v) DMSO. For wTP3, the assay buffer additionally contained ATP (f.c.: 1 mM).
Biotinylated TNIK was immobilized on a Biacore CAP chip (GE Healthcare) to a surface density of 950-1200 response units following the standard immobilization protocols provided by the manufacturer. The interaction sensorgrams were measured as single-cycle kinetics performed with five concentrations of the ligand sequentially flown over the chip at a flow rate of 15 μL/min allowing for 20 or 30 s association and 70 or 60 s for dissociation between the steps. The final dissociation step was allowed to proceed for 180 s. […]
was repeated in triplicate on a Biacore 8K instrument (GE Healthcare) using a multi cycle kinetics format. The experimental details were as above, except ATP was not added to the buffer for wTP3. Kinetic parameters and affinities of the interaction were determined assuming the standard 1:1 binding model using the Biacore software (GE Healthcare).
Reported KD values were calculated from the average measured association and dissociation rates (Table S5).

TNIK [3] = target: T1, TNIK; test: ADP-Glo kinase inhibition assay; type: biochemical; parameters: Biotinylated TNIK (kinase domain, amino acids 1-314;); biotin (biotinylated protein); purchased Carna Biosciences (Kobe, Japan)
Protocol: 2.9. Kinase inhibition assays with ADP-Glo
The ADP-Glo assay system was purchased from Promega. The kinase reaction buffer contained 50 mM Tris (pH 7.5), 10 mM MgCl2 and 0.01% (v/v) triton X-100. TNIK (1.25 nM) was incubated with various concentrations of analyte inhibitors in kinase reaction buffer at 25 °C for 10 min. After, the reactions were initiated by the addition of ATP and substrate […]
peptide (MSTtide, sequence: NH2-NKGYNTLRRKK-CONH2;ref 14 synthesized using the standard Fmoc SPPS techniques). The final mixtures containing 0.5 nM TNIK, 25 µM ATP, 15 µM MSTtide and variable concentration of the inhibitors were incubated at 25 °C for 30 min. The reactions were stopped by the addition of ADP -Glo reagent (1 volume), and the luminescent signal was developed following the manufacturer’s instructions. Luminesce was recorded on a Tecan M1000 PRO microplate reader (Tecan Group) with 1 s acquisition time and no signal attenuation. TNIK kinase activity was normalized to a no inhibitor control, and […]
values to the standard 4-parameter logistic curve model. […]

trypsin = tested on: T2, trypsin; test: Stability to agarose-immobilized trypsin (LC/MS); type: in vitro ADME; settings: isolated enzyme trypsin, pH 7.9
T2 construct: purchased Thermo Fisher
Protocol: 2.10. Thiopeptide metabolic stability experiments
Stability to trypsin. To a solution of the analyte thiopeptide (15 µM) and the internal standard peptide (5 µM NH2-PEG5-wstndwdtnd-PEG5-CONH2;ref 16 lower case encoding is for D-amino acids; synthesized using the standard Fmoc SPPS techniques) in digestion buffer [50 mM tris, 100 mM NaCl, 10 mM EDTA, pH 7.9] was added agarose -immobilized TPCK-treated trypsin (Thermo Fisher; 1 µL of resin slurry; 100 µL final reaction volume ) that was previously washed with digestion buffer thrice. The mixture was agitated at 22 °C, and at various timepoints (0.5, 1, 2, 4, and 6 h) aliquots were withdrawn and quenched with 14 volumes of water/acetonitrile mixture [30: 70 (v/v) water: acetonitr ile with 0.1% (v/v) TFA]. […]

[4] = Stability to glutathione (LC/MS); settings: for half-life at 10 µM: 5 mM glutathione in HEPES buffer, pH 7.5; for metabolic stability, τ1/2, glutathione: 5 mM glutathione, pH 7.5, 37 °C
Protocol: Stability to glutathione. To a freshly prepared solution of glutathione (5 mM) in stability
buffer [50 mM HEPES (pH 7.5), 100 mM NaCl] was added a solution of analyte (1.5 mM
thiopeptide in DMSO; f. c.: 10 µM). The contents were mixed and transferred to a 37 °C
thermostat. At various time points (0.5, 1, 2, 4, 6, and 10 h) aliquots were withdrawn and
quenched with 2 volumes of methanol containing 30 mM iodoacetamide. The samples were
analyzed by LC/MS (0.3 µL; section 2.6) using method 3. Areas under the peak curve for all
thiopeptide-derived products in the sample (TIC chromatograms) were used to calculate
fractions of intact analyte. Thiopeptide half-life values were obtained from non-linear
regression (scipy)15 of experimentally measured values to the pseudo-first order
approximation for the reaction kinetics which can be used since [glutathione] >> [analyte].

[5] = tested on: HCT116 colon carcinoma cells; test: Cell viability assay (Cell Counting Kit-8); settings: 8 μM, 24 h, thiopeptide acetate salts
Protocol: HCT116 cells were cultured in McCoy's 5A (Modified) Medium supplemented with 1% (v/v)
penicillin-streptomycin and 10% (v/v) fetal bovine serum (all from Thermo Fisher) in a
All assays were conducted using thiopeptide acetate salts prepared as follows. Strong
anion resin (AG® 1–X8 acetate form, analytical grade, quaternary ammonium 10~50 mg)
was first washed three times with 1.6 N acetic acid and three times with 0.16 N acetic acid.
Then, a thiopeptide solution ( 0.5~3 mg, dissolved in water/ acetonitrile [1:1, v/v; ~1 ml]) was
added to the resin. After 2 h on a rotary shaker, the peptide-resin suspension was ﬁltered
and the liquid phase was recovered. The resin was washed twice with water/acetonitrile (1:1,
v/v; 0.5 ml/wash), and the solutions were combined.
Cell viability assays. HCT116 cells were grown to 40–50% confluency in 96-well plates
that the final DMSO concentration is 1% (v/v) for every sample. In the first experiment (Fig.
S44a), the cells were grown for 24 h, and the incubation time was further extended to 48 h
In both cases, the cell viability was
directly assayed with Cell Counting Kit-8 (Dojindo) following the manufacturer’s instructions
allowing 4 h to develop the signal. Absorbance at 450 nm was measured on a Tecan M1000
PRO microplate reader (Tecan Group), and live cell counts were normalized to the DMSO
control. All experiments were performed in triplicate, and in most cases, replicated at least
once to analogous outcomes.

[6] = tested on: agarose-immobilized TPCK-treated trypsin (Thermo Fisher); test: agarose-immobilized TPCK-treated trypsin in digestion buffer [50 mM tris, 100 mM NaCl, 10 mM EDTA, pH 7.9]; settings: 22 °C, up to 6 h
[7] = 0.5 nM TNIK, 25 µM ATP, 15 µM MSTtide, 4-parameter logistic fit, read-out: ADP-Glo IC50 against TNIK
[8] = 0.5 nM TNIK, 25 µM ATP, 15 µM MSTtide, 4-parameter logistic fit

Molecule | half-life at 10 µM [1] [h] | KD (TNIK [2]) | KD (binding affinity to TNIK) (TNIK [2]) | IC50 (TNIK [3]; [7]) [µM] | half-life at 15 µM (trypsin) [h] | not cleaved [6] | further results
C=C1NC(=O)C(=C)NC(=O)[C@H](CCCCN)NC(=O)[C@H](CC(C)C)NC(=O)[C@H]([C@@H](C)O)NC(=O)[C@H](CCCCN)NC(=O)[C@H](Cc2ccc(O)cc2)NC(=O)[C@H]([C@@H](C)CC)NC(=O)[C@H](Cc2ccccc2)NC(=O)CNC(=O)[C@H](Cc2c[nH]c3ccccc23)NC(=O)c2ccc(-c3nc(C(=O)OC)cs3)nc2-c2csc(n2)C(=C)NC(=O)CNC1=O [TP1, reference compound] (WGFIYKTLK[Dha][Dha]G; linker N-C via X1) | 2.3 ± 0.1 | – | – | – | – | – | –
C=C1NC(=O)CN(C)C(=O)/C(=C/C)NC(=O)C(=C)NC(=O)[C@@H]2Cc3ccc(O)cc3CN2C(=O)[C@@H]2CCCN2C(=O)[C@H](CC(C)C)NC(=O)[C@H](Cc2c[nH]c3ccccc23)NC(=O)[C@H](Cc2c[nH]c3ccccc23)NC(=O)c2ccc(-c3nc(C(=O)OC)cs3)nc2-c2csc(n2)C(=C)NC(=O)c2csc(n2)/C(=C/C)NC(=O)/C(=C/C)NC1=O [hTP4] (WWLP[Tic(7-OH)][Dha][Dhb][Sar][Dha][Dhb][X3]; linker N-C via X1) | 18.7 ± 1.5 | weak/no binding; fitting not conducted | no measurable binding/inhibition | 24.9 ± 3.6 | > 100 | – | –
C=C1NC(=O)[C@H](Cc2ccc([N+](=O)[O-])cc2)N(C)C(=O)CN(C)C(=O)CNC(=O)[C@H](Cc2c[nH]c3ccccc23)NC(=O)c2ccc(-c3nc(C(=O)OC)cs3)nc2-c2csc(n2)C(=C)NC(=O)c2csc(n2)[C@H](CC(C)C)NC(=O)[C@H](CO)NC(=O)[C@H](CCCNC(=N)N)NC(=O)[C@H](CC(N)=O)NC(=O)CN(C)C(=O)[C@H](CC(C)C)NC(=O)[C@H](CC(N)=O)NC1=O [hTP6] (WG[Sar][NMePhe(4-NO2)][Dha]NL[Sar]NRS[LeuThz(4-CO)]; linker N-C via X1) | 3.6 ± 0.1 | weak/no binding; fitting not conducted | no measurable binding/inhibition | 10.7 ± 1.1 | 1.01 ± 0.07 | – | metabolic stability, τ1/2, serum ([1]; human serum, 37 °C, first-order decay fit): unstable
C=C1NC(=O)[C@@H]2Cc3ccc(O)cc3CN2C(=O)[C@H](CCCNC(=N)N)NC(=O)[C@H](CC(C)C)NC(=O)[C@H](Cc2ccc([N+](=O)[O-])cc2)N(C)C(=O)[C@H](CC(N)=O)NC(=O)[C@H](CC(C)C)NC(=O)[C@H](CCCNC(=N)N)NC(=O)[C@H](CCCC(N)=O)NC(=O)[C@H](C)NC(=O)[C@H](Cc2c[nH]c3ccccc23)NC(=O)c2ccc(-c3nc(C(=O)OC)cs3)nc2-c2csc(n2)C(=C)NC(=O)CNC1=O [hTP13] (WA[Aad](NH2)RLN[NMePhe(4-NO2)]LR[Tic(7-OH)][Dha]G; linker N-C via X1) | 18.9 ± 1.5 | – | – | 2.7 ± 0.2 | 1.2 ± 0.1 | – | koff (TNIK [2]): 0.0533 s⁻¹; kon (TNIK [2]): 648000 M⁻¹ s⁻¹; Kd (TNIK [2]): 0.082 µM; half-life at 10 µM [4]: 1.9 ± 0.1 h; metabolic stability, τ1/2, glutathione [4]: less than 2 h
C=C1NC(=O)[C@H](Cc2ccc([N+](=O)[O-])cc2)N(C)C(=O)[C@H]([C@@H](C)O)NC(=O)C(=C)NC(=O)C(=C)NC(=O)[C@@H]2Cc3ccc(O)cc3CN2C(=O)CN(C)C(=O)C(=C)NC(=O)CN(C)C(=O)[C@H](CCCC(N)=O)NC(=O)[C@H](Cc2c[nH]c3ccccc23)NC(=O)[C@H](Cc2c[nH]c3ccccc23)NC(=O)c2ccc(-c3nc(C(=O)OC)cs3)nc2-c2csc(n2)C(=C)NC(=O)CNC1=O [wTP3] (WW[Aad](NH2)[Sar][Dha][Sar][Tic(7-OH)][Dha][Dha]T[NMePhe(4-NO2)][Dha]G; linker N-C via X1) | 17.2 ± 1.1 | – | single-digit | – | > 100 | – | koff (TNIK [2]): 0.00579 s⁻¹; kon (TNIK [2]): 1.37e+06 M⁻¹ s⁻¹; Kd (TNIK [2]): 0.0042 µM; ADP-Glo IC50 against TNIK (TNIK [3]; [8]): no measurable binding/inhibition; cytotoxicity (cell viability) after 24 h incubation [5]: inactive; half-life at 10 µM [4]: 20.6 ± 2 h; metabolic stability, τ1/2, glutathione [4]: 20.6 h
C=C1NC(=O)[C@@H]2Cc3ccc(O)cc3CN2C(=O)CN(C)C(=O)/C(=C/C)NC(=O)CN(C)C(=O)[C@H](CCCC(N)=O)NC(=O)[C@H](Cc2c[nH]c3ccccc23)NC(=O)[C@H](Cc2c[nH]c3ccccc23)NC(=O)c2ccc(-c3nc(C(=O)OC)cs3)nc2-c2csc(n2)C(=C)NC(=O)CNC(=O)/C(=C/C)NC(=O)[C@H](Cc2ccc([N+](=O)[O-])cc2)N(C)C(=O)[C@H]([C@@H](C)O)NC(=O)C(=C)NC1=O [wTP4] (WW[Aad](NH2)[Sar][Dhb][Sar][Tic(7-OH)][Dha][Dha]T[NMePhe(4-NO2)][Dhb]G; linker N-C via X1) | 14.3 ± 0.7 | – | – | 0.24 ± 0.03 | > 100 | – | koff (TNIK [2]): 0.000432 s⁻¹; kon (TNIK [2]): 42500 M⁻¹ s⁻¹; Kd (TNIK [2]): 0.0102 µM; ADP-Glo IC50 against TNIK (TNIK [3]; [8]): sub-μM
C=C1NC(=O)[C@H](CCCC(N)=O)NC(=O)[C@@H]2Cc3ccc(O)cc3CN2C(=O)[C@H](CC(N)=O)NC(=O)/C(=C/C)NC(=O)[C@H](Cc2ccc([N+](=O)[O-])cc2)N(C)C(=O)CN(C)C(=O)[C@H](C)NC(=O)[C@H](Cc2c[nH]c3ccccc23)NC(=O)c2ccc(-c3nc(C(=O)OC)cs3)nc2-c2csc(n2)C(=C)NC(=O)c2csc(n2)[C@H](C(C)C)NC(=O)C(=C)NC(=O)/C(=C/C)NC1=O [wTP8] (WA[Sar][NMePhe(4-NO2)][Dhb]N[Tic(7-OH)][Aad](NH2)[Dha][Dhb][Dha][ValThz]; linker N-C via X1) | 34.9 ± 2.3 | weak/no binding; fitting not conducted | no measurable binding/inhibition | 15.2 ± 1.5 | > 100 | – | –
C=C1NC(=O)[C@@H]2CCCN2C(=O)[C@H]([C@@H](C)O)NC(=O)CN(C)C(=O)CN(C)C(=O)CN(C)C(=O)[C@H](Cc2ccc([N+](=O)[O-])cc2)N(C)C(=O)[C@H](CC(N)=O)NC(=O)[C@@H]2Cc3ccc(O)cc3CN2C(=O)[C@H](Cc2ccc([N+](=O)[O-])cc2)N(C)C(=O)[C@H](CO)NC(=O)[C@H](CC(N)=O)NC(=O)[C@H]([C@@H](C)O)NC(=O)[C@H](Cc2c[nH]c3ccccc23)NC(=O)c2ccc(-c3nc(C(=O)OC)cs3)nc2-c2csc1n2 [wTP13] (WTNS[NMePhe(4-NO2)][Tic(7-OH)]N[NMePhe(4-NO2)][Sar][Sar][Sar]TP; linker N-C via X1) | 99.4 ± 13 | weak/no binding; fitting not conducted | no measurable binding/inhibition | – | – | – | IC50 (TNIK [3]): 9.6 ± 0.7 µM; half-life at 15 µM (trypsin; agarose-immobilized trypsin, 22 °C, read-out: metabolic stability, τ1/2, trypsin): > 100 h
AgfTNyCSTSVC | – | – | – | – | – | did not degrade (6 h); completely stable; τ1/2 >100 h | –
TNSfyNfgggTP | – | – | – | – | – | completely stable; τ1/2 >100 h | –
WCgSgySSTfSG | – | – | – | – | – | did not degrade (6 h); completely stable; τ1/2 >100 h | –
WCgTgySSTfTG | – | – | – | – | – | did not degrade (6 h); completely stable; τ1/2 >100 h | –
WLPySTgSTTC | – | – | – | – | – | did not degrade (6 h); τ1/2 > 100 h, no measurable degradation during the course of the experiment | –
